In US20080213410A1, “ANTI-HUMAN PAPILLOMAS VIRUS TOPICAL COMPOSITION” (priority 2007, published 2008):

System: human papillomavirus (HPV) genital warts
Test: 15 months treatment of 90 infected patients, number of recurrent warts (Example 1)
Assay type: in vivo
Text: The composition, to be applied topically or transdermally to the skin and mucous membranes, is of high interest because it triggers little or no side-effects, very little irritation, no restrictive length of application, no impact on non-infected skin, can heal surface and/or deep flesh warts and prevent the recurrence of outbreaks. The treatment consists in topically administering the composition to the HPV infected skin and mucous membranes of patients. Such physiological regions consists of, in particular, the skin of the penis, vulva (area outside the vagina), anus, scrotum, groin, or thigh and in the linings of the vagina, cervix, or rectum presenting the virus related warts. […] Two types of warts can be found in patients: acute or chronic warts. The first kind, the acute wart, can be treated by simply swiping the surface of the skin or mucous membrane with a swab, previously impregnated with the composition, and gently rubbing the skin in order to allow penetration of the composition in its deepest layers. The second kind is the chronic wart, which requires a more invasive type of treatment. Indeed, the treatment is either effected by applying to the skin or mucous surface to treat a transdermal patch, constantly and regularly diffusing the composition through the area it covers, or by using a microlet, which uses a needle rapidly piercing the skin and injecting the composition deeply in the flesh.
Posology: Application of the topical composition is effected 1 time per week through swiping of the region with a swab containing the composition in the case of an acute wart or through the use of a transdermal patch or microlet in the case of a chronic wart.
Results: Table 1 comprises the results of a 15 months treatment with the composition of the present invention on a total of 90 infected patients. Table 2 comprises the results of a 15 months treatment with liquid nitrogen on a total of 90 infected patients. The compiled data consists of the number of recurrent warts that had still developed after a 15 months treatment with either the cream of the present invention or with liquid nitrogen. These records represent direct evidence that the composition of the present invention is effective, the number of warts that had still reappeared after a 15 months long treatment of the intermittent lesion and inflammation being less important with the cream than with the liquid nitrogen. Indeed, 67% of patients treated with the composition of the present invention presented a low degree of infections after the 15 months treatment (1 to 2 recurrent warts) whereas only 13% of the patients treated with the liquid nitrogen presented similar results.

`N#N` [liquid nitrogen] was tested. Which “patients presenting a low degree of infections after the 15 months treatment (1 to 2 recurrent warts)” value (90 patients per treatment) did it give?
The value was 13%.

What about the “Number of patients with 1 to 2 recurrent warts after a 15 months treatment” value (90 patients, 1 to 2 warts) of the same compound?
Its value is 12.

What about the “Number of patients with 3 to 5 recurrent warts after a 15 months treatment” value (90 patients, 3 to 5 warts) of the same compound?
The value was 49.

What about the “Number of patients with 6 to 10 recurrent warts after a 15 months treatment” value (90 patients, 6 to 10 warts) of the same compound?
Its value is 29.
